What was measured:
[1] = In vitro liver microsomal stability, human liver microsomes
Experimental: (§1) The concentration of the compound in the samples was determined by LC-MS/MS.
(§2) Experimental process: The incubation was performed using 96-well incubation plates, with individual plates labeled as T0, T5, T15, T30, T45, T60, Blank60, and NCF60. The reaction time points corresponding to the incubation plates were set at 0, 5, 15, 30, 45, and 60 minutes. In the Blank60 plate, no test compound or control compound was added, and the sample was collected after 60 minutes of incubation. In the NCF60 plate, potassium phosphate buffer was used in place of the NADPH regeneration system and incubated for 60 minutes. All time point samples were taken from individual wells.
For the T0, T5, T15, T30, T45, T60, and NCF60 plates, 5 μL of either the test or control compound working solution and 100 μL of microsomal working solution (with a liver microsomal protein concentration of 0.5 mg/mL) were added. Only microsomal working solution was added to the Blank60 well. In the Blank60 plate, only the microsomal working solution was added. Then, the incubation plates, except for TO and NCF60, including Blank60, T5, T15, T30, T45, and T60, were pre-incubated in a 37° C. water bath for approximately 10 minutes.
For samples in the TO plate, 180 μL of stop solution (where the stop solution was a solution of acetonitrile and methanol (95:5, V/V) containing 100 ng/mL tolbutamide) was added before adding the NADPH regeneration system working solution.
50 μL of potassium phosphate buffer was added to each well of the NCF60 plate and incubated for 60 minutes.
After the pre-incubation of Blank60, T5, T15, T30, T45, and T60 incubation plates, 44 μL of NADPH regeneration system working solution was added to each sample well to initiate the reaction. Therefore, for sample wells containing either the test compound or the control compound working solutions, the final reaction concentration was 1 μM, with the concentration of liver microsomes at 0.5 mg/mL. The final concentrations of DMSO and acetonitrile in the reaction system were 0.01% (v/v) and 0.99% (v/v), respectively.
After incubation for an appropriate period (e.g., 5, 15, 30, 45, and 60 minutes), 180 μL of stop solution was added to each test compound and control compound sample well in the Blank60, T5, T15, T30, T45, T60, and NCF60 plates to stop the reaction.
All sample plates were shaken thoroughly and centrifuged for 10 minutes. A volume of 80 μL of the supernatant from each test compound was diluted to 240 L with a solution of acetonitrile (1:9, v/v) containing 0.1% formic acid for LC-MS/MS analysis.

[2] = tested on: MDA-MB-436 cells (BRCA1 mutation); experiment: Anti-proliferation assay on MDA-MB-436 cells (BRCA1 mutation); type: cell-based; conditions: Homo sapiens, MDA-MB-436, 168 h; incubated for 7 days, chemiluminescent cell viability; read-out: IC50, proliferation inhibition on MDA-MB-436 cells (BRCA1 mutation)
Experimental: MDA-MB-436 cells (BRCA1 mutation) were seeded in black 96-well plates with clear bottoms. Each well contained 135 μL of cell suspension with 3,500 MDA-MB-436 cells (BRCA1 mutation). The cell plate was incubated overnight in a CO2 incubator. A 400× stock solution of the test compound was prepared. […] 78 μL of medium was added to an intermediate plate. Subsequently, 2 μL of the serially diluted compound per well was transferred to the corresponding wells of the intermediate plate. 2 μL of DMSO was added to the vehicle control and blank control. After mixing well, 15 μL of the mixture per well was then transferred to the cell plate. […] The cell plate was incubated for 7 days in a CO2 incubator. The cell plate was removed and equilibrated to room temperature for 30 minutes. 75 μL of chemiluminescent cell viability assay reagent was added to each well. The cell plate was shaken on an orbital shaker for 3 minutes to induce cell lysis, followed by 10 minutes of incubation at room temperature to stabilize the luminescent signal.

[3] = In vitro liver microsomal stability, mouse liver microsomes
Experimental: as §1, §2
For the T0, T5, T15, T30, T45, T60, and NCF60 plates, 5 μL of either the test or control compound working solution and 100 μL of microsomal working solution (with a liver microsomal protein concentration of 0.5 mg/mL) were added. Only microsomal working solution was added to the Blank60 well. In the Blank60 plate, only the microsomal working solution was added. Then, the incubation plates, except for TO and NCF60, including Blank60, T5, T15, T30, T45, and T60, were pre-incubated in a 37° C. water bath for approximately 10 minutes. […]

[4] = biological target: PARP1 (Homo sapiens (Human), UniProt P09874); experiment: Binding activity between compound and PARP1, fluorescence polarization assay; conditions: 8 nM PARP1, 5 nM fluorescent probe, 4 hours at room temperature
PARP1, sequence (P09874 whole entry): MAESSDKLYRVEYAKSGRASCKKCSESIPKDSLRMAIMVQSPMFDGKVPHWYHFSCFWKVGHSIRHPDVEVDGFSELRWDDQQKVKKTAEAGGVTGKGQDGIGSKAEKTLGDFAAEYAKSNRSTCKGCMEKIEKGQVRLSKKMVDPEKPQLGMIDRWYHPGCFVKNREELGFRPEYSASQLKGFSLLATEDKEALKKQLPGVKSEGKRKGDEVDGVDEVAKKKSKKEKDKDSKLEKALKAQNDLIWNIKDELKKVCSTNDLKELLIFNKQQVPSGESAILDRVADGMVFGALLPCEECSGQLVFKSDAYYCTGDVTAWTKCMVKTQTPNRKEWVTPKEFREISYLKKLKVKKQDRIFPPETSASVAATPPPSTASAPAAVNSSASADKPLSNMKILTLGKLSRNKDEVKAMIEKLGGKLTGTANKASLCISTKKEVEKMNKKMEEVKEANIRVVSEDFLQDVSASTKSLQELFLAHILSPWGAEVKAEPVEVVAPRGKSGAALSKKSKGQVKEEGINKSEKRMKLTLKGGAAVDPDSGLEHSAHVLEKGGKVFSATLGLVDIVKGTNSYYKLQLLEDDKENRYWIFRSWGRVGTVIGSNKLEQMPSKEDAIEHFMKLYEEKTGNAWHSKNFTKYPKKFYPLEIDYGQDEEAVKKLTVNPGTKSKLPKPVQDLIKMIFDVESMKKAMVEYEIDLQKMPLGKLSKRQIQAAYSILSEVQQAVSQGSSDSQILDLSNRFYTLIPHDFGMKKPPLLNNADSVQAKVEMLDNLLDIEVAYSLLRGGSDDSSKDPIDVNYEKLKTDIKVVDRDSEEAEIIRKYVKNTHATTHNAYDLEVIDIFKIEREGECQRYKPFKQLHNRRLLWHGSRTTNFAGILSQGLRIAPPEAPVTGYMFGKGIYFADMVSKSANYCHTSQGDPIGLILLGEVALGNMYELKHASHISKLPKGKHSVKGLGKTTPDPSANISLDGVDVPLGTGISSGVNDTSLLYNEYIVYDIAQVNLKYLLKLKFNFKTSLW
Experimental: The fluorescence polarization assay was performed in 96-well black-walled plates (Greiner). The reaction buffer consisted of 50 mM Tris (pH 8), 0.001% Triton X100, 10 mM MgCl2, and 150 mM NaCl. Both the fluorescent probe and His-Avi-tagged PARP1 protein were manufactured by WuXi AppTec (Shanghai). In a 100 μL reaction system, 8 nM PARP1, 5 nM fluorescent probe, and the compounds were added respectively. The compound concentration was prepared following the starting concentration and dilution gradient in Table 1. […] The test sample was incubated at room temperature for 4 hours, protected from light. Fluorescence polarization values were measured using an En Vision plate reader. The obtained fluorescence polarization values and compound concentrations were subjected to nonlinear fitting using GraphPad 8.0 software to determine the IC50 values.

[5] = biological target: PARP2 (Homo sapiens (Human), UniProt Q9UGN5); experiment: Binding activity between compound and PARP2, fluorescence polarization assay; conditions: 3 nM PARP2, 5 nM fluorescent probe, 4 hours at room temperature
PARP2, sequence (Q9UGN5 whole entry): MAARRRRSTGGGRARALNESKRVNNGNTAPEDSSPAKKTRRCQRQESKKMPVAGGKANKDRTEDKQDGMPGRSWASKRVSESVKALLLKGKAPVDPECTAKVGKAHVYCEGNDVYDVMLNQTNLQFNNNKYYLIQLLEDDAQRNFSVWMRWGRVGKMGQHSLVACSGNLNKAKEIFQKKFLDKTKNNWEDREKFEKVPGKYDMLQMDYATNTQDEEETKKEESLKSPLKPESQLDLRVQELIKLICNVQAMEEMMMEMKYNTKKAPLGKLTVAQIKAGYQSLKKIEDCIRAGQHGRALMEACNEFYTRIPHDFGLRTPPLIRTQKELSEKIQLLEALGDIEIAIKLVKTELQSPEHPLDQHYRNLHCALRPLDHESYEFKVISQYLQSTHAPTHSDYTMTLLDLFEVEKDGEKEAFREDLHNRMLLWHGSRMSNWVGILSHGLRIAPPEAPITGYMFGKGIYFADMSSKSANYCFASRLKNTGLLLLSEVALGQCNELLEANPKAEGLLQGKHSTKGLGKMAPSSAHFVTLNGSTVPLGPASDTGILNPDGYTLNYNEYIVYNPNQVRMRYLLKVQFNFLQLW
Experimental: The fluorescence polarization assay was performed in 96-well black-walled plates (Greiner). The reaction buffer consisted of 50 mM Tris (pH 8), 0.001% Triton X100, 10 mM MgCl2, and 150 mM NaCl. Both the fluorescent probe and His-Avi-tagged PARP2 protein were manufactured by WuXi AppTec (Shanghai). In a 100 μL reaction system, 3 nM PARP2, 5 nM fluorescent probe, and the compounds were added respectively. The compound concentration was prepared following the starting concentration and dilution gradient in Table 2. The test sample was incubated at room temperature for 4 hours, protected from light. Fluorescence polarization values were measured using an EnVision plate reader. The obtained fluorescence polarization values and compound concentrations were subjected to nonlinear fitting using GraphPad 8.0 software to determine the IC50 values.

[6] = tested on: DLD1 (BRCA2 KO) cells; experiment: Anti-proliferation assay on DLD1 cells (BRCA2 KO); type: cell-based; conditions: Homo sapiens, DLD-1, 168 h; incubated for 7 days, chemiluminescent cell viability
Experimental: DLD1 (BRCA2 KO) cells were seeded in white a 96-well plate with 80 μL of cell suspension per well, containing 1,000 DLD1 (BRCA2 KO) cells per well. The cell plate was incubated overnight in a CO2 incubator. The test compounds were 5-fold diluted with a multi-channel pipette to the 8th concentration, i.e., diluted from 2 mM to 0.0256 μM, and duplicate experiment was set. 78 μL of medium was added to an intermediate plate. Subsequently, 2 μL of the serially diluted compound per well was transferred to the corresponding wells of the intermediate plate and mixed well. 20 μL of the mixture per well was then transferred to the cell plate. The concentration of the compound transferred to the cell plate ranged from 10 μM to 0.128 nM. The cell plate was incubated for 7 days in a CO2 incubator. An additional cell plate was prepared to read the signal value on the day of compound addition, which served as the maximum value (Max in the following equation) for data analysis. The cell plate was added with 25 μL of chemiluminescent cell viability assay reagent per well and incubated at room temperature for 10 minutes to stabilize the luminescent signal. A multimode microplate reader was used for reading. […].

Row | Structure (SMILES) | IC50 [2] | IC50 [4] | further results
1 | CNC(=O)c1ccc(C2=CCN(Cc3ccc4c([nH]c(=O)c5cccnc54)c3F)CC2)c(F)n1 [Compound 27] | 0.69 nM | – | CLint scaled at 1 μM [1]: 9.5 mL/min/kg; half-life at 1 μM [1]: 2.2 h
2 | CNC(=O)c1ccc(C2=CCN(Cc3ccc4c([nH]c(=O)c5cccn54)c3F)CC2)c(F)n1 [Compound 28] | 0.37 nM | – | –
3 | [2H]C([2H])([2H])NC(=O)c1ccc(N2CCN(Cc3ccc4c([nH]c(=O)c5cccnc54)c3F)CC2)c(F)n1 [Compound 29] | 1.14 nM | – | CLint scaled at 1 μM [3]: < 38 mL/min/kg
4 | [2H]C([2H])([2H])NC(=O)c1ccc(C2=CCN(Cc3ccc4c([nH]c(=O)c5cccnc54)c3F)CC2)c(F)n1 [Compound 31] | 0.75 nM | 4.7 nM | CLint scaled at 1 μM [1]: < 8.6 mL/min/kg; half-life at 1 μM [1]: > 2.42 h; IC50 [5]: > 20000 nM
5 | [2H]C([2H])(c1ccc2c([nH]c(=O)c3cccnc32)c1F)N1CCN(c2ccc(C(=O)NC)nc2F)CC1 [Compound 44] | 0.65 nM | – | –
6 | [2H]C([2H])(c1ccc2c([nH]c(=O)c3cccnc32)c1F)N1CCN(c2ccc(C(=O)NC)nc2Cl)CC1 [Compound 45] | 0.27 nM | – | –
7 | CNC(=O)c1ccc(N2CCN(Cc3ccc4c([nH]c(=O)c5cc(F)cnc54)c3F)CC2)c(Cl)n1 [Compound 50] | 0.41 nM | 7.9 nM | IC50 [5]: > 20000 nM
8 | [2H]C([2H])([2H])NC(=O)c1ccc(N2CCN(Cc3ccc4c([nH]c(=O)c5cc(F)cnc54)c3F)CC2)c(Cl)n1 [Compound 52] | – | 5.5 nM | –
9 | CNC(=S)c1ccc(N2CCN(Cc3ccc4nc(C)c(=O)[nH]c4c3F)CC2)c(F)n1 [Trifluoroacetate of compound 5] | 1.2 nM | – | –
10 | CNC(=O)c1ccc2c(n1)CC[C@H]1CN(Cc3c(F)cc4nc(C)c(=O)[nH]c4c3F)CCN21 [Trifluoroacetate of compound 19] | – | 14 nM | IC50 [5]: > 50000 nM; IC50 [6]: 24.2 nM
11 | CNC(=O)c1ccc(N2CCN(Cc3cc(F)c4nc(C)c(=O)[nH]c4c3F)CC2)c(F)n1 [Trifluoroacetate of compound 22] | 5.73 nM | – | IC50 [6]: 4.43 nM

— patent US20250295642A1, “FLUOROQUINOXALINONE DERIVATIVE FOR SELECTIVELY INHIBITING PARP1” (MEDSHINE DISCOVERY INC., priority 2022, published 2025)
